Results from patent US12077503B2, “Substituted cyclic amides and their use as herbicides” (FMC CORPORATION, priority 2015, dated 2024).

How the values were obtained:
Format in all cases: in vivo
Kochia (Kochia scoparia) [1] = assay: Test A preemergence; details: Bassia scoparia, pre-emergence, 240 h; for pest or weed control at 125 g/ha: 125 g ai/ha, Preemergence, visual injury rating after approximately 10 d, read-out: Kochia plant response rating (0 to 100 scale, 0 is no effect, 100 is complete control); for pest or weed control at 500 g/ha: 500 g ai/ha, preemergence, visual injury rating about 10 d after treatment, 0 to 100 scale (0 no effect, 100 complete control), read-out: Kochia plant response rating
In short: (§1)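 Preemergence soil spray on seeded pots or post-emergence spray on 1–2 leaf plants, in loam–sand blend. Greenhouse ~10 d. Visual rating 0–100 against untreated plants.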

[2] = system: barnyardgrass (Echinochloa crus-galli); assay: Test A preemergence; details: Echinochloa crus-galli, pre-emergence, 240 h; for pest or weed control at 125 g/ha: 125 g ai/ha, Preemergence, visual injury rating after approximately 10 d, read-out: Barnyardgrass plant response rating (0 to 100 scale, 0 is no effect, 100 is complete control); for pest or weed control at 500 g/ha: 500 g ai/ha, preemergence, visual injury rating about 10 d after treatment, 0 to 100 scale (0 no effect, 100 complete control), read-out: Barnyardgrass plant response rating
In short: as §1

[3] = system: giant foxtail (Setaria faberii); assay: Test A preemergence; details: Setaria faberi, pre-emergence, 240 h; for pest or weed control at 125 g/ha: 125 g ai/ha, Preemergence, visual injury rating after approximately 10 d, read-out: Foxtail, Giant plant response rating (0 to 100 scale, 0 is no effect, 100 is complete control); for pest or weed control at 500 g/ha: 500 g ai/ha, preemergence, visual injury rating about 10 d after treatment, 0 to 100 scale (0 no effect, 100 complete control), read-out: Foxtail, Giant plant response rating
In short: as §1

[4] = system: pigweed (Amaranthus retroflexus); assay: Test A preemergence; details: Amaranthus retroflexus, pre-emergence, 240 h; for pest or weed control at 125 g/ha: 125 g ai/ha, Preemergence, visual injury rating after approximately 10 d, read-out: Pigweed plant response rating (0 to 100 scale, 0 is no effect, 100 is complete control); for pest or weed control at 500 g/ha: 500 g ai/ha, preemergence, visual injury rating about 10 d after treatment, 0 to 100 scale (0 no effect, 100 complete control), read-out: Pigweed plant response rating
[5] = system: ragweed (common ragweed, Ambrosia elatior); assay: Test A preemergence; details: Ambrosia artemisiifolia, pre-emergence, 240 h; for pest or weed control at 125 g/ha: 125 g ai/ha, Preemergence, visual injury rating after approximately 10 d, read-out: Ragweed plant response rating (0 to 100 scale, 0 is no effect, 100 is complete control); for pest or weed control at 500 g/ha: 500 g ai/ha, preemergence, visual injury rating about 10 d after treatment, 0 to 100 scale (0 no effect, 100 complete control), read-out: Ragweed plant response rating
In short: as §1

[6] = system: ryegrass, Italian (Italian ryegrass, Lolium multiflorum); assay: Test A preemergence; details: Lolium multiflorum, pre-emergence, 240 h; for pest or weed control at 125 g/ha: 125 g ai/ha, Preemergence, visual injury rating after approximately 10 d, read-out: Ryegrass, Italian plant response rating (0 to 100 scale, 0 is no effect, 100 is complete control); for pest or weed control at 500 g/ha: 500 g ai/ha, preemergence, visual injury rating about 10 d after treatment, 0 to 100 scale (0 no effect, 100 complete control), read-out: Ryegrass, Italian plant response rating
In short: as §1

[7] = system: Galium (catchweed bedstraw, Galium aparine); assay: Test A postemergence; details: Galium, post-emergence, 240 h, 125 g ai/ha, Postemergence; visual injury after approximately 10 d; 0 to 100 scale where 0 is no effect and 100 is complete control; read-out: Plant response rating, Galium
In short: as §1

Kochia (Kochia scoparia) [8] = assay: Test A postemergence; details: Bassia scoparia, post-emergence, 240 h, 125 g ai/ha, Postemergence; visual injury after approximately 10 d; 0 to 100 scale where 0 is no effect and 100 is complete control; read-out: Plant response rating, Kochia
In short: as §1

[9] = system: barnyardgrass (Echinochloa crus-galli); assay: Test A postemergence; details: Echinochloa crus-galli, post-emergence, 240 h, 125 g ai/ha, Postemergence; visual injury after approximately 10 d; 0 to 100 scale where 0 is no effect and 100 is complete control; read-out: Plant response rating, Barnyardgrass
In short: as §1

[10] = system: blackgrass (Alopecurus myosuroides); assay: Test A postemergence; details: Alopecurus myosuroides, post-emergence, 240 h, 125 g ai/ha, Postemergence; visual injury after approximately 10 d; 0 to 100 scale where 0 is no effect and 100 is complete control; read-out: Plant response rating, Blackgrass
In short: as §1

corn (Zea mays) = assay: Test A postemergence; details: Zea mays, post-emergence, 240 h, 125 g ai/ha, Postemergence; visual injury after approximately 10 d; 0 to 100 scale where 0 is no effect and 100 is complete control
In short: as §1

[11] = system: giant foxtail (Setaria faberii); assay: Test A postemergence; details: Setaria faberi, post-emergence, 240 h, 125 g ai/ha, Postemergence; visual injury after approximately 10 d; 0 to 100 scale where 0 is no effect and 100 is complete control; read-out: Plant response rating, Foxtail, Giant
In short: as §1

[12] = system: pigweed (Amaranthus retroflexus); assay: Test A postemergence; details: Amaranthus retroflexus, post-emergence, 240 h, 125 g ai/ha, Postemergence; visual injury after approximately 10 d; 0 to 100 scale where 0 is no effect and 100 is complete control; read-out: Plant response rating, Pigweed
In short: as §1

[13] = system: ragweed (common ragweed, Ambrosia elatior); assay: Test A postemergence; details: Ambrosia artemisiifolia, post-emergence, 240 h, 125 g ai/ha, Postemergence; visual injury after approximately 10 d; 0 to 100 scale where 0 is no effect and 100 is complete control; read-out: Plant response rating, Ragweed
In short: as §1

[14] = system: ryegrass, Italian (Italian ryegrass, Lolium multiflorum); assay: Test A postemergence; details: Lolium multiflorum, post-emergence, 240 h, 125 g ai/ha, Postemergence; visual injury after approximately 10 d; 0 to 100 scale where 0 is no effect and 100 is complete control; read-out: Plant response rating, Ryegrass, Italian
In short: as §1

[15] = system: wheat (Triticum aestivum); assay: Test A postemergence; details: Triticum aestivum, post-emergence, 240 h, 125 g ai/ha, Postemergence; visual injury after approximately 10 d; 0 to 100 scale where 0 is no effect and 100 is complete control; read-out: Plant response rating, Wheat
In short: as §1

[16] = system: barnyardgrass (Echinochloa crus-galli); assay: Test B flooded paddy test; details: Echinochloa crus-galli, Flood, 250 g ai/ha; scale of 0 to 100 where 0 is no effect and 100 is complete control; read-out: Barnyardgrass plant response rating
In short: (§2)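 Compound goes directly into floodwater once pots are flooded 3 cm above soil, targeting plants at two leaves; the water depth is then held for the test duration. Plants sit 13–15 d in a greenhouse and are rated visually, 100 denoting complete control.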

[17] = system: ducksalad (Heteranthera limosa); assay: Test B flooded paddy test; details: Heteranthera limosa, Flood, 250 g ai/ha; scale of 0 to 100 where 0 is no effect and 100 is complete control; read-out: Ducksalad plant response rating
In short: as §2

rice (Oryra sativa) = assay: Test B flooded paddy test; details: Oryza sativa, Flood, 250 g ai/ha; scale of 0 to 100 where 0 is no effect and 100 is complete control; read-out: Rice plant response rating
In short: as §2

[18] = system: sedge, umbrella (small-flower umbrella sedge, Cyperus difformis); assay: Test B flooded paddy test; details: Cyperus difformis, 250 g ai/ha, Flood; 0 to 100 scale where 0 is no effect and 100 is complete control; read-out: Sedge, Umbrella plant response rating
In short: as §2

SMILES	pest or weed control at 125 g/ha (Kochia (Kochia scoparia) [1])	pest or weed control at 500 g/ha (Kochia (Kochia scoparia) [1])	pest or weed control at 125 g/ha [2]	pest or weed control at 500 g/ha [2]	pest or weed control at 125 g/ha [3]	pest or weed control at 500 g/ha [3]	pest or weed control at 125 g/ha [4]	pest or weed control at 500 g/ha [4]	pest or weed control at 125 g/ha [5]	pest or weed control at 500 g/ha [5]	pest or weed control at 125 g/ha [6]	pest or weed control at 500 g/ha [6]	pest or weed control at 125 g/ha [7]	pest or weed control at 125 g/ha (Kochia (Kochia scoparia) [8])	pest or weed control at 125 g/ha [9]	pest or weed control at 125 g/ha [10]	Corn plant response rating (crop injury, 0 = no effect, 100 = complete kill) at 125 g/ha (corn (Zea mays))	pest or weed control at 125 g/ha [11]	pest or weed control at 125 g/ha [12]	pest or weed control at 125 g/ha [13]	also measured
CN1C[C@H](c2cc(F)cc(F)c2)[C@@H](C(=O)Nc2ccc(O)cc2F)C1=O [Compound 985]	0%	0%	0%	0%	0%	0%	0%	0%	0%	0%	0%	0%	0%	0%	0%	0%	0%	0%	0%	0%	pest or weed control at 125 g/ha [14]: 0%; plant injury at 125 g/ha [15]: 0%; pest or weed control at 250 g/ha [16]: 0%; pest or weed control at 250 g/ha [17]: 40%; pest or weed control at 250 g/ha (rice (Oryra sativa)): 0%; pest or weed control at 250 g/ha [18]: 0%
COc1ccc([C@H]2CN(C)C(=O)[C@@H]2C(=O)Nc2cccc(F)c2F)cc1C(F)(F)F [Compound 986]	30%	70%	90%	90%	100%	100%	60%	70%	50%	70%	60%	80%	30%	30%	80%	40%	80%	90%	0%	0%	pest or weed control at 125 g/ha [14]: 30%; plant injury at 125 g/ha [15]: 20%; pest or weed control at 250 g/ha [16]: 55%; pest or weed control at 250 g/ha [17]: 75%; pest or weed control at 250 g/ha (rice (Oryra sativa)): 20%; pest or weed control at 250 g/ha [18]: 0%
CSc1ccccc1NC(=O)[C@H]1C(=O)N(C)C[C@@H]1c1ccc(F)c(Br)c1 [Compound 990]	70%	90%	100%	100%	100%	100%	40%	80%	50%	80%	0%	60%	60%	40%	90%	0%	40%	80%	30%	0%	pest or weed control at 125 g/ha [14]: 20%; plant injury at 125 g/ha [15]: 0%; pest or weed control at 250 g/ha [16]: 50%; pest or weed control at 250 g/ha [17]: 100%; pest or weed control at 250 g/ha (rice (Oryra sativa)): 55%; pest or weed control at 250 g/ha [18]: 0%
